Data as given in the Bradley open melting point set (2014).

melting point [°C]	Compound
47	O=CNc1ccccc1 [N-Phenylformamide]
84	O=[N+]([O-])c1cccc2c(/C=N/c3ccccc3)cccc12 [N-[(1E)-(5-nitronaphthalen-1-yl)methylidene]aniline]
150	CC(=O)N/C=C/c1ccccc1[N+](=O)[O-] [N-[(E)-2-(2-nitrophenyl)ethenyl]acetamide]
197	CC(=O)N[C@@H](CCC(=O)O)C(=O)O [N-acetyl-l-glutamic acid]
153	CC(=O)N[C@@H](Cc1ccc(O)cc1)C(=O)O [N-acetyl-l-tyrosine]
53	C(=N\c1ccccc1)/c1ccccc1 [N-benzylideneaniline]
-55	CNCc1ccccc1 [N-benzylmethylamine]
85	C[C@@H](NC(=O)OCc1ccccc1)C(=O)O [N-benzyloxycarbonyl-D-alanine]
86	O=C(N[C@H](Cc1ccccc1)C(=O)O)OCc1ccccc1 [N-benzyloxycarbonyl-D-phenylalanine]
77	O=C(O)[C@H]1CCCN1C(=O)OCc1ccccc1 [N-benzyloxycarbonyl-D-proline]
118	O=C(N[C@H](CO)C(=O)O)OCc1ccccc1 [N-benzyloxycarbonyl-D-serine]
59	CC(C)[C@@H](NC(=O)OCc1ccccc1)C(=O)O [N-benzyloxycarbonyl-D-valine]
85	C[C@H](NC(=O)OCc1ccccc1)C(=O)O [N-benzyloxycarbonyl-l-alanine]
57	CCCC[C@H](NC(=O)OCc1ccccc1)C(=O)O [N-benzyloxycarbonyl-l-norleucine]
98	C[C@@H](O)[C@H](NC(=O)OCc1ccccc1)C(=O)O [N-benzyloxycarbonyl-l-threonine]
95	CC(C)(C)OC(=O)N[C@@H](CO)Cc1ccccc1 [N-boc-D-phenylalaninol]
90	CC(C)(C)OC(=O)N[C@H](CO)C(=O)O [N-boc-D-serine]
78	CC(C)[C@@H](NC(=O)OC(C)(C)C)C(=O)O [N-boc-D-valine]
82	C[C@H](NC(=O)OC(C)(C)C)C(=O)O [N-boc-L-alanine]
59	C[C@@H](CO)NC(=O)OC(C)(C)C [N-boc-L-alaninol]
50	CSCC[C@H](NC(=O)OC(C)(C)C)C(=O)O [N-boc-L-methionine]
79	CC(C)[C@H](NC(=O)OC(C)(C)C)C(=O)O [N-boc-L-valine]
62	CC(C)(C)OC(=O)N[C@H](COCc1ccccc1)C(=O)O [N-boc-o-benzyl-D-serine]
69	CCCCOC(=O)c1ccc(O)cc1 [N-butyl 4-hydroxybenzoate]
110	O=C(O)C1CCN(C(=O)CCl)CC1 [N-chloroacetylisonipecotic acid]
-7	CCCCCCCCCCCCc1ccccc1 [N-dodecylbenzene]
-64	CCNc1ccccc1 [N-ethylaniline]

melting point [°C]	Compound
-46	CCN(C(C)C)C(C)C [N-ethyldiisopropylamine]
147	CC[C@H](C)[C@H](NC(=O)OCC1c2ccccc2-c2ccccc21)C(=O)O [N-fmoc-L-isoleucine]
154	CC(C)C[C@H](NC(=O)OCC1c2ccccc2-c2ccccc21)C(=O)O [N-fmoc-L-leucine]
134	CSCC[C@H](NC(=O)OCC1c2ccccc2-c2ccccc21)C(=O)O [N-fmoc-L-methionine]
41	CCCCCCCCCCCCCCCCCCCCC [N-heneicosane]
-48	CCCCCCCc1ccccc1 [N-heptylbenzene]
57	CCCCCCCCCCCCCCCCCCCCCCCCCC [N-hexacosane]
153	CNc1ccc([N+](=O)[O-])cc1 [N-methyl-4-nitroaniline]
66	CN(N)c1ccc(C(F)(F)F)cc1[N+](=O)[O-] [N-methyl-N-[2-nitro-4-(trifluoromethyl)phenyl]hydrazine]
-4	CNC=O [N-methylformamide]
218	O=C1C=C/C(=O)N(N1)C [N-methylmaleic hydrazide]
10	CCCCCCCCCCCCCCC [N-pentadecane]
38	CCCCCOC(=O)c1ccc(O)cc1 [N-pentyl 4-hydroxybenzoate]
-30	OCCNc1ccccc1 [N-phenylethanolamine]
118	O=C(O)CNc1ccccc1 [N-phenylglycine]
97	CCCOC(=O)c1ccc(O)cc1 [N-propyl 4-hydroxybenzoate]
73	CC(C)(C)/[N+]([O-])=C/c1ccccc1 [N-tert-butyl-alpha-phenylnitrone]
141	O=C(NC(Cc1ccccc1)C(=O)O)OCc1ccccc1[N+](=O)[O-] (stereo unspecified) [N-{[(2-nitrobenzyl)oxy]carbonyl}phenylalanine]
124	CC(C)(C)NCC(O)COc1cccc2c1C[C@H](O)[C@H](O)C2 (stereo partly specified) [Nadolol]
230	CCn1cc(C(=O)O)c(=O)c2ccc(C)nc21 [Nalidixic Acid]
163	NC(=O)[C@H](Cc1ccccc1)NC(=O)OCc1ccccc1 [Nalpha-[(benzyloxy)carbonyl]phenylalaninamide]
135	O=C(O)Cc1cccc2ccccc12 [Naphthalen-1-Yl-Acetic Acid]
190	Nc1cc2ccccc2cc1N [Naphthalene-2,3-diamine]
82	c1ccc2ccccc2c1 [Naphthalene]
87	COc1ccc2cc(C(C)CO)ccc2c1 (stereo unspecified) [Naproxol]
290	C[C@@H]1CC=CC=CC=CC=C[C@H](OC2O[C@H](C)[C@@H](O)[C@H](N)[C@@H]2O)C[C@@H]2O[C@](O)(C[C@@H](O)C[C@H]3O[C@@H]3C=CC(=O)O1)C[C@H](O)[C@H]2C(=O)O (stereo partly specified) [Natamycin]
237	O=C(O)c1cccnc1 [Niacin]

melting point [°C]	Compound
237	O=C(O)c1cccnc1 [Nicotinic acid]
-18	CCCCCCCCC=O [Nonanal]
206	C#C[C@]1(O)CC[C@H]2[C@@H]3CCC4=CC(=O)CC[C@@H]4[C@H]3CC[C@@]21CC [Norgestrel]
242	O=C(OCCOCn1c2N\C(=N/C(=O)c2nc1)N)C [O-Acetylacyclovir]
48.5	Cc1ccc(C)n1-c1ccc(F)cc1 [OSM-S-01]
118	Cc1cc(C=O)c(C)n1-c1ccc(F)cc1 [OSM-S-02]
64.5	CCOC(=O)c1cc(C)n(-c2ccc(F)cc2)c1C [OSM-S-03]
178	Cc1cc(C(=O)OCC(=N)O)c(C)n1-c1ccc(F)cc1 [OSM-S-05]
194	Cc1cc(C(O)=NCC(=N)O)c(C)n1-c1ccc(F)cc1 [OSM-S-19]
71.5	Cc1ccc(C)n1-c1ccc(C(F)(F)F)cc1 [OSM-S-27]
61	CCOC(=O)c1cc(C)n(-c2ccc(C)cc2)c1C [OSM-S-30]
310	CC(=O)N(C1=NC(=O)/C(=C/c2cc(C)n(-c3ccc(C(F)(F)F)cc3)c2C)S1)c1ccccc1 [OSM-S-45]
277	Cc1cc(/C=C2\SC(=Nc3ccccc3)N=C2O)c(C)n1-c1ccccn1 [OSM-S-51]
71.5	Cc1cc(/C=C2\S/C(=N\c3ccccc3)N(C3CCCC3)C2=O)c(C)n1-c1ccc(C(F)(F)F)cc1 [OSM-S-54]
260	OC1=NC(=Nc2ccccc2)S/C1=C\c1ccccc1 [OSM-S-55]
62.5	CCCCCCCCCCCCCCCC(=O)O [Palmitic acid]
85	Clc1cc(Cl)c(Cl)c(Cl)c1Cl [Pentachlorobenzene]
133	Cc1c(C)c(C)c(C=O)c(C)c1C [Pentamethylbenzaldehyde]
-78	CCCCCO [Pentan-1-ol]
278	c1cc2cccc3c4cccc5cccc(c(c1)c23)c54 [Perylene] [listing 1 of 2 here]
278	c1cc2cccc3c4cccc5cccc(c(c1)c23)c54 [Perylene] [listing 2 of 2 here]
101	c1ccc2c(c1)ccc1ccccc12 [Phenanthrene]
262	O=C1OC(c2ccc(O)cc2)(c2ccc(O)cc2)c2ccccc21 [Phenolphthalein]
59.5	c1ccc2c(c1)Oc1ccccc1S2 [Phenoxathiine]
105	CCCCC1C(=O)N(c2ccccc2)N(c2ccccc2)C1=O [Phenylbutazone]

Compound	melting point [°C]
N=C(N)NC(N)=S [N-amidinothiourea]	164
CCCCc1ccccc1 [N-butylbenzene]	-88
CC(C)Nc1ccc(Nc2ccccc2)cc1 [N-isopropyl-n'-phenyl-p-phenylenediamine]	77
C[C@]12CC[C@H]3[C@@H](CCC4=CC(=O)CC[C@@H]43)[C@@H]1CC[C@@H]2O [Nandrolone]	112
c1ccc2cc3cc4ccccc4cc3cc2c1 [Naphthacene]	357
C[C@@H]1O[C@@H](O[C@H]2C[C@@H](O)[C@]3(CO)[C@H]4[C@H](O)C[C@]5(C)[C@@H](C6=CC(=O)OC6)CC[C@]5(O)[C@@H]4CC[C@]3(O)C2)[C@H](O)[C@H](O)[C@H]1O [Ouabain]	200
Clc1ccc(-c2ccccc2)cc1 [PCB-3]	78
Clc1ccc(-c2ccccc2Cl)cc1 [PCB-8]	44
Clc1ccc(-c2ccc(Cl)cc2)cc1 [PCB-15]	149
Clc1ccc(-c2ccc(Cl)cc2Cl)cc1 [PCB-28]	58
Clc1ccc(Cl)c(-c2cc(Cl)c(Cl)cc2Cl)c1 [PCB-101]	77
Clc1ccc(-c2ccc(Cl)c(Cl)c2Cl)cc1Cl [PCB-105]	117
Clc1cc(Cl)c(-c2ccc(Cl)c(Cl)c2Cl)cc1Cl [PCB-138]	79
Oc1c(Br)c(Br)c(Br)c(Br)c1Br [Pentabromophenol]	230
[O-][Cl+3]([O-])([O-])O [Perchloric acid]	-17
ClC(Cl)=C/C3C(C(=O)OCc2cccc(Oc1ccccc1)c2)C3(C)C (stereo unspecified) [Permethrin]	34
c1ccc2c(c1)Nc1ccccc1S2 [Phenothazine]	187
